These results are taken from publication PMC10455239, “Antimicrobial, Cytotoxic, and α-Glucosidase Inhibitory Activities of Ethanol Extract and Chemical Constituents Isolated from Homotrigona apicalis Propolis—In Vitro and Molecular Docking Studies” (Life, 2023).

For one assay, the system named is KB (epidermal carcinoma). The assay can be described thus: Cytotoxicity assay (MTT). The assay is classed as cell-based. The conditions noted are these: read-out: IC50 KB. The procedure:
(§1) The cytotoxic assays were evaluated in triplicate against three cancer cell lines, namely KB (epidermal carcinoma), A-549 (human lung adenocarcinoma), and HepG-2 (human hepatoma) (ATCC), with a modification of the previously published method. The cells were cultured in Dulbecco’s D-MEM medium (Gibco, Life Technologies Corporation, Grand Island, NY, USA), supplemented with 10% fetal calf serum (Sigma-Aldrich, St. Loius, MO, USA), L-glutamine (2 mM) (Sigma-Aldrich, St. Loius, MO, USA), penicillin G (100 UI/mL), and streptomycin (100 μg/mL) (Sigma-Aldrich, St. Loius, MO, USA). The compound solutions were prepared in DMSO, and the cytotoxic assays were conducted in 96-well microtiter plates against the cancer cells (3 × 10^5 cells/mL concentration). After 48 h incubation at 37 °C in an air/CO2 (95:5) atmosphere, with or without isolated compounds, MTT reagent was added to each well (0.5 mg/mL). The cell growth was assessed by measuring the colorimetric of formazan at 570 nm using a microplate reader. […] Ellipticine was used as a positive reference.

A further assay deals with HepG-2 (human hepatoma). Put plainly: Cytotoxicity assay (MTT). The assay is classed as cell-based. Particulars: read-out: IC50 Hep-G2. The procedure:
as §1

Assay [1] concerns A-549 (human lung adenocarcinoma). Put plainly: Cytotoxicity assay (MTT). The conditions noted are these: read-out: IC50 A-549. The assay is classed as cell-based. As to the method:
as §1

Assay [2] concerns the target T1, α-glucosidase (Saccharomyces cerevisiae, UniProt P53341).
T1 construct: purchased Sigma-Aldrich G0660
Put plainly: biochemical. The procedure:
An assay for the α-glucosidase inhibitory activity was carried out by a modification of the published method. Briefly, solutions of α-glucosidase (Saccharomyces cerevisiae, G0660, Sigma-Aldrich, St. Louis, MO, USA) and p-nitrophenyl α-D-glucopyranoside (Sigma-Aldrich, St. Louis, MO, USA) were prepared in a phosphate buffer (100 mM, pH 6.8, Sigma-Aldrich, St. Louis, MO, USA). […] The compound solution (2 μL) and 40 µL of enzyme solution (0.5 U/mL) in 120 µL phosphate buffer were mixed. After 5 min of preincubation, 20 µL of 10 mM p-nitrophenyl α-D-glucopyranoside prepared in phosphate buffer was added, and the reaction mixture was incubated for 30 min at 37 °C. The reaction was quenched by the addition of 80 µL of 0.2 M Na2CO3. The absorbance of the released p-nitrophenol was measured at 410 nm using a Biotek reader. The % inhibition was calculated using the following equation:Inhibition (%) = [1 − (Asample/Acontrol)] ∗ 100
The IC50 values of the isolated compounds were calculated using the program Table Curve.

A further assay relates to Lactobacillus fermentum. The assay can be described thus: Antimicrobial activity, broth microdilution. The assay is classed as cell-based. The conditions noted are these: read-out: IC50 L. fermentum. As to the method: (§2) The antimicrobial activity assay was performed using the broth microdilution method. Dimethyl sulfoxide (DMSO) was used for the preparation of compound solutions at concentrations of 256 μg/mL, 64 μg/mL, 16 μg/mL, 4 μg/mL, and 1 μg/mL. Three strains of Gram-positive bacteria (Staphylococcus aureus, Bacillus cereus, and Lactobacillus fermentum); three strains of Gram-negative bacteria (Salmonella enterica, Escherichia coli, and Pseudomonas aeruginosa), and fungus Candida albicans (obtained from the American Type Culture Collection (ATCC)) were used for the test. Ampicillin, Cefotaxim, and Nystatin were used as positive controls for the Gram (+) bacterial and Gram (−) bacterial strains and C. albicans, respectively. The activity of the isolated compounds was expressed as an IC50 value (half-maximal inhibitory concentration). The IC50 values were calculated using the program […].

The next assay deals with Bacillus cereus. Put plainly: Antimicrobial activity, broth microdilution. The assay is classed as cell-based. Particulars: read-out: IC50 B. cereus. The procedure:
as §2
A general note: Dilution methods test growth across graded concentrations, often in twofold steps.

The next assay concerns Escherichia coli. The assay can be described thus: Antimicrobial activity, broth microdilution. The assay is classed as cell-based. Particulars: Escherichia coli, read-out: IC50 E. coli. As to the method:
as §2

The test system of another assay is Staphylococcus aureus. Put plainly: Antimicrobial activity, broth microdilution. The assay is classed as cell-based. The conditions noted are these: read-out: IC50 S. aureus. The procedure: as §2
The next assay concerns Candida albicans. The assay can be described thus: Antimicrobial activity, broth microdilution. The assay is classed as cell-based. The conditions noted are these: Candida albicans, read-out: IC50 C. albicans. As to the method: as §2
In the next assay the test system is Salmonella enterica. The assay can be described thus: Antimicrobial activity, broth microdilution. The assay is classed as cell-based. Particulars: Salmonella enterica; Gram (−) strain; read-out: IC50 S. enterica. As to the method: as §2
A further assay has as its system Pseudomonas aeruginosa. The assay can be described thus: Antimicrobial activity, broth microdilution. Particulars: Pseudomonas aeruginosa, read-out: IC50 P. aeruginosa. The assay is classed as cell-based. As to the method: as §2
Assay [3] relates to Gram (+) bacterial strains. Put plainly: Antibacterial activity, range over strains. The assay is classed as cell-based. Particulars: range over strains and compounds. As to the method: as §2
Assay [4] has as its system KB, HepG-2, and A-549 cancer cell lines. The assay can be described thus: Cytotoxicity assay (MTT), range over the three cell lines. The assay is classed as cell-based. The conditions noted are these: range over three cell lines and both xanthones. As to the method: as §1
For assay [5], the target named is α-glucosidase. The conditions noted are these: cited from earlier work.
[6] abbreviates: IC50 (Table S1), Table S1, α-glucosidase.
[7] abbreviates: IC50 α-Glucosidase Inhibitory Activity, p-nitrophenyl α-D-glucopyranoside, pH 6.8, 37 °C.

Values after ≈ are worked out from the molar mass of the structure shown. Like-named read-outs stand apart in the source and are kept apart here. A value given as a limit tells only on which side of the number the result lay.

T1 sequence (P53341 whole entry): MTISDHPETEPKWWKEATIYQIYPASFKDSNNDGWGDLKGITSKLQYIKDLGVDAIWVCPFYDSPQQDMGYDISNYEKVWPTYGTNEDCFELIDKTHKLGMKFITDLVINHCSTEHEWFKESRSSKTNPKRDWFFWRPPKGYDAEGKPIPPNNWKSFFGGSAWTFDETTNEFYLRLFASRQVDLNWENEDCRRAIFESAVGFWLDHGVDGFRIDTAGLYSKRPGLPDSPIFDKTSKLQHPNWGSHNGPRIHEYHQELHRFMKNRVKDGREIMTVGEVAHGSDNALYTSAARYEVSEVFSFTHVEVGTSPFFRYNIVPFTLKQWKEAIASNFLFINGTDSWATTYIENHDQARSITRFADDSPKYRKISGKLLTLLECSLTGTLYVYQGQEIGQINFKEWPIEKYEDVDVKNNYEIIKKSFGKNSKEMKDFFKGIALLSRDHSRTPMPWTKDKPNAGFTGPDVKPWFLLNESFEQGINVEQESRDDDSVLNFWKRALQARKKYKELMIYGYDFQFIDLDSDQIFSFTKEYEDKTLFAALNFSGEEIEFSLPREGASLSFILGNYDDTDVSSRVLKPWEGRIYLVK

In general, IC50 refers to the concentration that gives 50% inhibition. For the compound `CC(=O)O[C@H]1CC[C@]2(C)[C@H]3CC=C4[C@@H]5CC(C)(C)CC[C@]5(C(=O)O)CC[C@@]4(C)[C@]3(C)CC[C@H]2C1(C)C` [Compound 5, acetyl oleanolic acid], the IC50 is more than 128 µg/mL in the assay with KB (epidermal carcinoma) (48 h); more than 128 µg/mL with HepG-2 (human hepatoma) (HepG2, 48 h); more than 128 µg/mL in assay [1] (A549, 48 h); 16.9 µM on α-glucosidase [2] (setting [6]); 16.9 µM against α-glucosidase [2] (setting [7]); 49.9 ± 1.06 µg/mL (≈ 100 µM) with Lactobacillus fermentum. The concentration for half-maximal inhibition (IC50) in the assay on Bacillus cereus, in the assay with Escherichia coli, with Staphylococcus aureus, in the assay on Candida albicans, in the assay on Salmonella enterica and in the assay on Pseudomonas aeruginosa was more than 256 µg/mL throughout.
As to `CC(C)=CCC[C@H](C(=O)O)[C@@H]1CC[C@]2(C)C3=C(CC[C@@]12C)[C@@]1(C)CC[C@@H](O)C(C)(C)[C@@H]1CC3` [Compound 6, 3α-hydroxytirucalla-8,24-dien-21-oic acid], the 50% inhibitory concentration (IC50) is 49.3 ± 5.21 µg/mL (≈ 108 µM) in the assay on KB (epidermal carcinoma) (48 h); 77.7 ± 8.09 µg/mL (≈ 170 µM) in the assay on HepG-2 (human hepatoma) (HepG2, 48 h); 78.6 ± 7.69 µg/mL (≈ 172 µM) in [1] (A549, 48 h); more than 561 µM against α-glucosidase [2] (setting [6]); more than 561 µM at α-glucosidase [2] (setting [7]); 62.2 ± 1.24 µg/mL (≈ 136 µM) in the assay on Lactobacillus fermentum. Moreover, the half-maximal inhibitory concentration (IC50) in the assay with Bacillus cereus was 141 ± 4.14 µg/mL (≈ 308 µM); in the assay on Escherichia coli, more than 256 µg/mL; in the assay with Staphylococcus aureus, more than 256 µg/mL; with Candida albicans, more than 256 µg/mL; with Salmonella enterica it was more than 256 µg/mL; in the assay with Pseudomonas aeruginosa, more than 256 µg/mL.
Regarding `C[C@H]1[C@H](C)CC[C@]2(C(=O)O)CC[C@]3(C)C(=CC[C@@H]4[C@@]5(C)CC[C@H](O)C(C)(C)[C@@H]5CC[C@]43C)[C@H]12` [Compound 7, ursolic acid], the IC50 in the assay with KB (epidermal carcinoma) (MTT, 48 h incubation) is more than 128 µg/mL; in the assay with HepG-2 (human hepatoma) (HepG2, MTT, 48 h incubation), more than 128 µg/mL; in assay [1] (A549, MTT, 48 h incubation) it was more than 128 µg/mL; in [3] it was 0.56 to 17.3 µg/mL (≈ 1.23 to 37.9 µM); in the assay on Lactobacillus fermentum (Gram (+) strain), 10.6 ± 0.7 µg/mL (≈ 23.2 µM); in the assay on Bacillus cereus (Gram (+) strain), 10.2 ± 0.67 µg/mL (≈ 22.3 µM). For the same compound, the IC50 with Escherichia coli (Gram (−) strain) was more than 256 µg/mL; with Staphylococcus aureus (Gram (+) strain), 7.1 ± 0.25 µg/mL (≈ 15.5 µM); in the assay with Candida albicans (Fungus) it was more than 256 µg/mL; in the assay with Salmonella enterica, more than 256 µg/mL; in the assay with Pseudomonas aeruginosa (Gram (−) strain), more than 256 µg/mL.
Regarding `CC(C)=CCC/C(C)=C/Cc1c(O)c(CC=C(C)C)c(O)c2c(=O)c3cc(O)ccc3oc12` [Compound 8, cochinchinone A], the concentration for half-maximal inhibition (IC50) in assay [4] is 7.55 to 29.3 µg/mL (≈ 16.8 to 65.3 µM); with KB (epidermal carcinoma) (MTT, 48 h incubation) it was 29.3 ± 2.07 µg/mL (≈ 65.3 µM); in the assay on HepG-2 (human hepatoma) (HepG2, MTT, 48 h incubation), 17.4 ± 1.03 µg/mL (≈ 38.7 µM); in assay [1] (A549, MTT, 48 h incubation), 20.3 ± 1.34 µg/mL (≈ 45.3 µM); in [3] it was 0.56 to 17.3 µg/mL (≈ 1.25 to 38.6 µM); on α-glucosidase [2] (Table S1, α-glucosidase, read-out: IC50 (Table S1) (converted)), 20.2 µM. Further, the concentration for half-maximal inhibition (IC50) in the assay on Lactobacillus fermentum (Gram (+) strain) is 8.67 ± 0.38 µg/mL (≈ 19.3 µM); in the assay with Bacillus cereus (Gram (+) strain), 7.99 ± 0.33 µg/mL (≈ 17.8 µM); in the assay on Escherichia coli (Gram (−) strain), more than 256 µg/mL; in the assay with Staphylococcus aureus (Gram (+) strain), 17.3 ± 0.87 µg/mL (≈ 38.6 µM); with Candida albicans (Fungus) it was 65.3 ± 3.54 µg/mL (≈ 146 µM); with Salmonella enterica, more than 256 µg/mL. Also, in the assay with Pseudomonas aeruginosa (Gram (−) strain), the IC50 is 35.4 ± 2.03 µg/mL (≈ 79 µM).
Turning to `COc1c(O)cc2oc3cc(O)c(CC=C(C)C)c(O)c3c(=O)c2c1CC=C(C)C` [Compound 9, α-mangostin], the half-inhibitory concentration (IC50) is 11.4 ± 2.3 µM at α-glucosidase [5] (ref 59 (Nam K. Nguyen et al.)); 5 ± 0.1 µM at α-glucosidase [5] (ref 60 (H. W. Ryu et al.)); 7.55 to 29.3 µg/mL (≈ 18.4 to 71.3 µM) in [4]; 9.28 ± 0.58 µg/mL (≈ 22.6 µM) in the assay on KB (epidermal carcinoma) (MTT, 48 h incubation); 12.9 ± 0.68 µg/mL (≈ 31.4 µM) with HepG-2 (human hepatoma) (HepG2, MTT, 48 h incubation); 7.55 ± 0.25 µg/mL (≈ 18.4 µM) in assay [1] (A549, MTT, 48 h incubation). Further, the IC50 in assay [3] is 0.56 to 17.3 µg/mL (≈ 1.36 to 42.2 µM); against α-glucosidase [2] (setting [6]), 4.63 µM; at α-glucosidase [2] (setting [7]), 4.63 µM; at α-glucosidase [2] (IC50 α-glucosidase, equivalent in μM, converted from μg/mL) it was 4.63 ± 0.24 µM; with Lactobacillus fermentum (Gram (+) strain), 0.56 ± 0.09 µg/mL (≈ 1.36 µM); in the assay with Bacillus cereus (Gram (+) strain), 0.57 ± 0.07 µg/mL (≈ 1.39 µM). In addition, the IC50 in the assay on Escherichia coli (Gram (−) strain) amounted to 7.89 ± 0.34 µg/mL (≈ 19.2 µM); with Staphylococcus aureus (Gram (+) strain), 0.54 ± 0.07 µg/mL (≈ 1.32 µM); in the assay on Candida albicans (Fungus), 0.56 ± 0.06 µg/mL (≈ 1.36 µM); in the assay on Salmonella enterica, 16.3 ± 0.78 µg/mL (≈ 39.8 µM); in the assay with Pseudomonas aeruginosa (Gram (−) strain), 1.22 ± 0.09 µg/mL (≈ 2.97 µM).
